Earlier results on 2 molecules are cited in US20220403162A1, “POLYURETHANE COMPOSITIONS SALTED WITH BISBIGUANIDE” (Lubrizol Advanced Materials, Inc., priority 2019, published 2022).

The structures appear in SMILES notation.

On to `[H]/N=C(\N/C(=N/[H])NCCCCCCNC(=N)NC(=N)Nc1ccc(Cl)cc1)Nc1ccc(Cl)cc1` [Chlorhexidine, 1,6-bis(4-chloro-phenylbiguanido)hexane], for which the “solubility in water or alcohol” value (quoted from US 2004/0052831 A1) was “not soluble”.
As to `N=C(NCCCCCCNC(=N)NC(=N)Nc1ccc(Cl)cc1)NC(=N)Nc1ccc(Cl)cc1.O=C(O)[C@H](O)[C@@H](O)[C@H](O)[C@H](O)CO.O=C(O)[C@H](O)[C@@H](O)[C@H](O)[C@H](O)CO` [CHG, chlorhexidine digluconate], the solubility in water result (The Merck Index) is recorded as “at least 50%”.
